The test has as its system NCI-H23 complex spheroids with HUVEC/MSC, viability. Put plainly: Anticancer human tumor NCI-H23 cell line growth inhibition [RAS].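 For all read-outs here: spheroids exposed to compound for 7 days.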 Particulars: for viability, T/C: stronger effect = lower value. The text has this: RAS pathway inhibitors in Combinations in Complex Spheroids
A high-throughput screen of multi-cell type tumor spheroids was designed to identify active combinations of RAS pathway inhibitors and targeted small molecules. Complex spheroids include a stromal component modeled by human endothelial cells (HUVEC) and fibroblasts modeled by human mesenchymal stem cells (MSCs). The concentration ranges selected for each drug and investigational agent were based upon clinically achievable concentrations if the clinical Cmax of the agent was known.
Compounds. The drugs and investigational agents: abemaciclib (NSC768073), cobimetinib (NSC768068), divarasib (GDC6063, NSC841802), docetaxel (NSC628503), GDC-1971 (RLY-1971, NSC841576), gemcitabine (NSC613327), inavolisib (NSC800729), ipatasertib (NSC767898), KB-0742 (NSC834161), MRTX-1133 (NSC836407), osimertinib (NSC779217), RMC-4630 (NSC839698), RMC-6236 (NSC851965), RMC-6291 (NSC852671), Ro-3306 (NSC812927), sapanisertib (NSC764658), SN-38 (NSC673596), staurosporine (NSC755774), SY5609 (NSC837396), and tovorafenib (DAY101, NSC766906), were obtained from the National Cancer Institute (NCI) Developmental Therapeutics Program Chemical Repository. The FDA-approved anticancer drug set is available from the NCI Developmental Therapeutics Program. […] The stock solutions were prepared in dimethyl sulfoxide (DMSO, Sigma-Aldrich, St. Louis, MO, cat. D2650) at 800-fold the tested concentration and stored at -70 degrees C prior to their use. All drugs and investigational agents were tested over a range starting from a high concentration at or near the clinical Cmax and decreasing in half-log increments. If the clinical Cmax for an agent had not been determined, the highest concentration tested was 10 microM.
Cell Culture. All cells were maintained in an incubator at 37 degrees C and 5% CO2 with 95% humidity. The PDC lines were cultured according to standard operating procedures established by the NCI PDMR. All PDCs were thawed and cultured in Matrigel-coated flasks prepared with a working solution of 1X Ham's F-12 nutrient mix, without supplementation (Invitrogen, Waltham, MA, cat. 11765054), 100 U/mL penicillin-streptomycin (Invitrogen, cat. 15140122), and 2.5% Matrigel (Corning Inc., Corning, NY, cat. 354248) for the first three passages. The 362531-283-R-J2-PDC and 782815-120-R-J1-PDC lines were cultured in 6C/Colon 1B media, which includes advanced DMEM/F-12 (Thermo Fisher Scientific, cat. 12634028), 10 mM HEPES (Thermo Fisher Scientific, cat. 15630080), 1X GlutaMAX supplement (Thermo Fisher Scientific, cat. 35050061), 0.1 mg/mL primocin (InvivoGen, San Diego, CA, cat. ant-pm-2), 10% defined fetal bovine serum, heat inactivated (HyClone Laboratories Inc., Logan, UT, cat. SH30070.03HI), 50% L-WRN conditioned media (ATCC, cat. CRL-3276), 1.25 mM N-Acetyl-L-cysteine (Sigma-Aldrich, cat. A9165), 10 mM nicotinamide (Sigma-Aldrich, cat. N0636), 1X B-27 supplement (Thermo Fisher Scientific, cat. 17504044), 1X N-2 supplement (Thermo Fisher Scientific, cat. 17502048), 50 ng/mL human EGF (Thermo Fisher Scientific, cat. PHG0311), and 10 microM Y-27632 dihydrochloride (Tocris Bioscience, cat. 1254). The K12877-001-R-J1-PDC line was cultured in 6I media, which includes all 6C/Colon 1B media plus 10 ng/mL human FGF-10 (PeproTech, cat. 100-26), 1 ng/mL human FGF-2 (PeproTech, cat. 100-18B), 1 µM prostaglandin E2 (Tocris Bioscience, cat. 2296), […] hydrocortisone (Sigma-Aldrich, cat. H4001), and […] bovine insulin (Sigma-Aldrich, cat. I6634). The K86415-001-R-J1-PDC line was cultured in 6D media, which includes all 6C/Colon 1B media components minus the L-WRN conditioned media. The 485176-168-R4-J1-PDC was cultured in PANC media, which includes all 6C/Colon 1B media plus 100 ng/mL human FGF-10 (PeproTech, cat. 100-26), 500 nM SB-431542 (Selleckchem, cat. S1067), and 10 nM gastrin (Tocris Bioscience, cat. 3006). […]

Where [1] appears, read: compound alone, run of 07/15/2024.
Setting [2] is: compound alone, run of 07/09/2024.

This passage reports viability, T/C and IC50 results from PubChem BioAssay AID2060885 (Molecular Pharmacology Branch, DTP, NCI, 2025).

Each structure is given as a SMILES string. Several values for one entry are separate records, joined by “and”; a condition that tells them apart may be missing. Equal values may be shown once.

`C#Cc1c(F)ccc2cc(O)cc(-c3ncc4c(N5CC6CCC(C5)N6)nc(OCC56CCCN5CC(F)C6)nc4c3F)c12` (centres undefined): the viability, T/C (usually the ratio of treated to control) by setting is: (compound 0.0316 µM) 108% [middle of 8 runs]; (compound 0.1 µM) 105% [middle of 8 runs]; (compound 0.316 µM) 99.5% [middle of 8 runs]; (compound 1 µM) 89.5% [middle of 8 runs]; (compound 3.16 µM) 63.2% [middle of 8 runs]; (compound 10 µM) 38.2% [middle of 7 runs]. Besides, the IC50 (usually the concentration at which inhibition is half-maximal) under setting [1] is 5.77 µM [middle of 8 runs].
Consider `C=CC(=O)N1CCN(c2nc(OCC3CCCN3C)nc3c(F)c(-c4nc(N)cc(C)c4C(F)(F)F)c(Cl)cc23)C(C)C1` (centres undefined), for which the viability, T/C is 61.5% [middle of 12 runs] (compound 0.00316 µM); 48.4% [middle of 12 runs] (compound 0.01 µM); 39.9% [middle of 12 runs] (compound 0.0316 µM); 38.5% [middle of 12 runs] (compound 0.1 µM); 38.3% [middle of 12 runs] (compound 0.316 µM); 37.2% [middle of 12 runs] (compound 1 µM). Besides, the IC50 is, setting by setting: under setting [1], 9 nM [middle of 8 runs]; (curve of compound) 8.5 nM and < 3.16 nM and 7.59 nM.
Turning to `C=CC(=O)Nc1cc(Nc2nccc(-c3cn(C)c4ccccc34)n2)c(OC)cc1N(C)CCN(C)C`, the viability, T/C (compound 0.00316 µM) is 109% (2×) and 103% and 107%; the viability, T/C (compound 0.01 µM) is 105% [middle of 4 runs]; the viability, T/C (compound 0.0316 µM) was 102% [middle of 4 runs]; the viability, T/C (compound 0.316 µM) was 107% [middle of 4 runs]. In addition, the IC50 (curve of compound) was greater than 1000 nM.
In the case of `CC(C)NCC(C(=O)N1CCN(c2ncnc3c2C(C)CC3O)CC1)c1ccc(Cl)cc1` (centres undefined), the viability, T/C runs as follows: (compound 0.0316 µM) 103% [middle of 4 runs]; (compound 0.1 µM) 97.1% [middle of 4 runs]; (compound 0.316 µM) 102% [middle of 4 runs]; (compound 1 µM) 93.3% [middle of 4 runs]; (compound 3.16 µM) 73.3% [middle of 4 runs]. Besides, under “curve of compound”, the IC50 is > 10000 nM and 9190 nM and 9740 nM.
`CC(C)n1nc(-c2ccc3oc(N)nc3c2)c2c(N)ncnc21`: the viability, T/C runs as follows: (compound 0.000316 µM) 102% and 105% (2×) and 106%; (compound 0.00316 µM) 88.6% [middle of 4 runs]; (compound 0.01 µM) 83% [middle of 4 runs]; (compound 0.0316 µM) 61.7% [middle of 4 runs]; (compound 0.1 µM) 53.8% [middle of 4 runs]. The half-inhibitory concentration (IC50) (curve of compound) was 83.1 nM and > 100 nM and 67 nM.
Take `CC(Nc1ccc2c(c1)OCCn1cc(N3C(=O)OCC3C(F)F)nc1-2)C(N)=O` (centres undefined): the viability, T/C (compound 0.0316 µM) was 93.5% [middle of 4 runs]; the viability, T/C (compound 0.1 µM) was 89.5% [middle of 4 runs]; the viability, T/C (compound 0.316 µM) is 70.2% and 82.1% and 76.3% (2×); the viability, T/C (compound 1 µM) was 78.9% [middle of 4 runs]; the viability, T/C (compound 3.16 µM) was 71.8% [middle of 4 runs]; the viability, T/C (compound 10 µM) is 69.6% [middle of 4 runs]. Also, the IC50 (curve of compound) is greater than 10000 nM.
Regarding `CC1(C)CCC(Nc2ncc(C(F)(F)F)c(-c3c[nH]c4c(P(C)(C)=O)c(C#N)ccc34)n2)CN1` (centres undefined), the viability, T/C reads like this: (compound 0.000949 µM) 86.7% [middle of 4 runs]; (compound 0.003 µM) 73.2% [middle of 4 runs]; (compound 0.00949 µM) 51.7% [middle of 4 runs]; (compound 0.03 µM) 49.3% [middle of 4 runs]; (compound 0.0949 µM) 45.9% [middle of 4 runs]; (compound 0.3 µM) 48% [middle of 4 runs].
On to `CCN1CCN(Cc2ccc(Nc3ncc(F)c(-c4cc(F)c5nc(C)n(C(C)C)c5c4)n3)nc2)CC1`, for which the viability, T/C (compound 0.00316 µM) was 100% and 104% (2×) and 103%; the viability, T/C (compound 0.01 µM) is 92% [middle of 4 runs]; the viability, T/C (compound 0.0316 µM) is 78% [middle of 4 runs]; the viability, T/C (compound 0.1 µM) was 70.2% [middle of 4 runs]; the viability, T/C (compound 0.316 µM) was 58% [middle of 4 runs]. Moreover, the half-maximal inhibitory concentration (IC50) (curve of compound) is > 1000 nM and 434 nM and 646 nM.
Regarding `CCc1c2c(nc3ccc(O)cc13)-c1cc3c(c(=O)n1C2)COC(=O)[C@]3(O)CC`, the viability, T/C is 91.1% [middle of 4 runs] (compound 0.000949 µM); 59.1% [middle of 4 runs] (compound 0.003 µM); 32.2% [middle of 4 runs] (compound 0.00949 µM); 14.4% [middle of 4 runs] (compound 0.03 µM); 8.18% [middle of 4 runs] (compound 0.0949 µM); 6.26% [middle of 4 runs] (compound 0.3 µM). In addition, the half-inhibitory concentration (IC50) (curve of compound) was 4.43 nM [middle of 4 runs].
For `CCn1c(-c2cc(N3CCN(C)CC3)cnc2C(C)OC)c2c3cc(ccc31)-c1csc(n1)CC(NC(=O)C1CC1C)C(=O)N1CCCC(N1)C(=O)OCC(C)(C)C2` (centres undefined), the viability, T/C (compound 0.000949 µM) was 45.5% [middle of 8 runs]; the viability, T/C (compound 0.003 µM) is 36.2% [middle of 8 runs]; the viability, T/C (compound 0.00949 µM) was 32.6% [middle of 8 runs]; the viability, T/C (compound 0.03 µM) is 29.9% [middle of 8 runs]; the viability, T/C (compound 0.0949 µM) was 22.1% [middle of 8 runs]; the viability, T/C (compound 0.3 µM) is 19.5% [middle of 8 runs]. The half-maximal inhibitory concentration (IC50) under setting [2] is less than 0.949 nM.
Take `CCn1c(-c2cccnc2C(C)OC)c2c3cc(ccc31)N1CCOC(CC(NC(=O)C(C(C)C)N(C)C(=O)C3(F)CCN(C(=O)C#CC(C)(C)N(C)C)CC3)C(=O)N3CCCC(N3)C(=O)OCC(C)(C)C2)C1` (centres undefined): the viability, T/C is, setting by setting: (compound 0.000949 µM) 32.4% [middle of 8 runs]; (compound 0.00949 µM) 30.6% [middle of 8 runs]; (compound 0.03 µM) 31.6% [middle of 8 runs]; (compound 0.0949 µM) 30.8% [middle of 8 runs]; (compound 0.3 µM) 28.1% [middle of 8 runs]. For the same compound, the half-inhibitory concentration (IC50) under setting [2] is < 0.949 nM and 5.92 nM.
For `C[C@@H](NC(=O)c1ncnc(N)c1Cl)c1ncc(C(=O)Nc2cc(C(F)(F)F)c(Cl)cn2)s1`, the viability, T/C by setting is: (compound 0.0316 µM) 107% [middle of 4 runs]; (compound 0.1 µM) 106% and 109% (2×) and 116%; (compound 0.316 µM) 108% [middle of 4 runs]; (compound 1 µM) 101% (2×) and 99.7% and 106%; (compound 3.16 µM) 90.6% [middle of 4 runs]. Also, under “curve of compound”, the half-inhibitory concentration (IC50) is greater than 10000 nM.
Regarding `Nc1ccn(C2OC(CO)C(O)C2(F)F)c(=O)n1` (centres undefined), the viability, T/C is, setting by setting: (compound 0.00316 µM) 77.2% [middle of 4 runs]; (compound 0.01 µM) 15.3% [middle of 4 runs]; (compound 0.0316 µM) 8.37% [middle of 4 runs]; (compound 0.1 µM) 7.36% [middle of 4 runs]; (compound 0.316 µM) 7.15% [middle of 4 runs]; (compound 1 µM) 10.5% [middle of 4 runs]. Also, the concentration for half-maximal inhibition (IC50) (curve of compound) is 5.35 nM [middle of 4 runs].
With `O=C(c1ccc(F)c(F)c1Nc1ccc(I)cc1F)N1CC(O)([C@@H]2CCCCN2)C1`, the viability, T/C by setting is: (compound 0.0316 µM) 68.2% [middle of 4 runs]; (compound 0.1 µM) 46.3% [middle of 4 runs]; (compound 0.316 µM) 34.2% [middle of 4 runs]; (compound 1 µM) 19.7% [middle of 4 runs]. The half-maximal inhibitory concentration (IC50) (curve of compound) was 78.2 nM [middle of 4 runs].
